Assay results taken from patent publication US9988632B2, “Composition including pint gene expression inhibitor or pint activity inhibitor and use thereof” (Samsung Electronics Co., Ltd., priority 2015, dated 2018).

Assays:
Type in all cases: cell-based, human
PINT lincRNA = PINT lincRNA levels (qPCR) in young cells in the presence of DNA damage inducers; conditions: 10 μM, 24 hours, level in absence of DNA damage inducers taken as 1
Experimental: PINT lincRNA levels were measured according to DNA damage in cells. The cells were young cells HDF(M4) and HDF(neonatal) derived from humans, explained in section 1.
As a negative control, the cells were treated with dimethyl sulfoxide (DMSO) (Sigma-Aldrich). Thereafter, mRNAs were isolated from all the cells, and then quantitative polymerase chain reaction (qPCR) was performed using nucleotide sequences of SEQ ID NOS: 22 and 24 as PINT primers to measure PINT levels.

PINT = PINT level (qPCR) after siRNA transfection; conditions: HDF(neonatal) cells, 25 nM siRNA, 72 hours, vs scramble siRNA
Description: In detail, the young cells were human dermal fibroblast (HDF) (hereinafter, referred to as ‘HDF cell’ or ‘HDF (neonatal)’) obtained from neonatal foreskin, human dermal fibroblast (HDF) M4 cell (hereinafter, referred to as ‘HDF M4 cell’ or ‘HDF (M4)’) obtained from the foreskin of a child, and human mammary epithelial cell (HMEC) (hereinafter, referred to as ‘HMEC cell’ or ‘HMEC’) obtained from ATCC® PCS-600-010™. The young cells for the purposes of the experiments were cells of the above cell lines that were passaged 10 times or less and have a doubling time of about 1 day. The senescent cells were cells of the same cell lines that were passaged 33 to 50 times and have a doubling time of about 14 days or longer. The young cells and senescent cells were inoculated in 6-well plates at a density of 50,000 cells/well and 20,000 cells/well, respectively. The inoculated cells were cultured in 2 ml of a DMEM medium containing 10% (v/v) FBS, and 1× penicillin/streptomycin and high concentrations of glucose, glutamine, and pyruvate under conditions of 37° C. and 5% CO2 for 3 days.
mRNAs were isolated from all the cells thus prepared, and then quantitative polymerase chain reaction (qPCR) was performed using nucleotide sequences of SEQ ID NOS: 22 and 23 as PINT primers to measure PINT levels.
To inhibit PINT gene expression and/or PINT activity, the following 5 siRNAs including sequences complementary to PINT gene of SEQ ID NO: 1 were designed and synthesized (Cosmogenetech, Korea).
The siRNAs includes nucleotide sequences of SEQ ID NO: 12 and SEQ ID NO: 13; SEQ ID NO: 14 and SEQ ID NO: 15; SEQ ID NO: 16 and SEQ ID NO: 17; SEQ ID NO: 18 and SEQ ID NO: 19; and SEQ ID NO: 20 and SEQ ID NO: 21, respectively and hereinbelow, these siRNAs are called siPINT-1, siPINT-2, siPINT-3, siPINT-4, and siPINT-5, respectively.
It was examined whether the siRNAs decrease PINT levels in senescent cells. First, HDF(neonatal) young cells being passaged 9 times and having a doubling time of 1 day and HDF(neonatal) senescent cells being passaged 49 times and having a doubling time of 14 days, which were prepared in section 1, were transfected with 25 nM siRNA. The cells were cultured for 72 hours under the same conditions as in section 1, except that each siRNA was mixed with 1 μL of a Dharmacon transfection reagent (Dharmacon), and added to media. A negative control group was prepared in the same manner, except that scramble siRNA was added instead of the siRNAs. After culturing, PINT levels in the cells were measured in the same manner as in section 1. As a result, when siPINT-1, siPINT-2, siPINT-3, siPINT-4, and siPINT-5 were used, the PINT levels were decreased by 36, 0, 67, 50, and 0%, respectively, as compared to the control group.

[1] = system: HDF(neonatal) young and senescent cells; experiment: Selective death of senescent cells by inhibition of PINT expression (cell number after culturing); conditions: siRNA transfection, cultured 14 days
Experimental: HDF(neonatal) young cells being passaged 9 times and having a doubling time of 1 day and HDF(neonatal) senescent cells being passaged 49 times and having a doubling time of 14 days, which were prepared in section 1, were transfected with each of siPINT-1, siPINT-2, siPINT-3, siPINT-4, and siPINT-5 in the same manner as in section 3.2, and further cultured in wells of 6-well plates for 14 days under the same conditions as in section 1. A negative control group was prepared in the same manner, except that scramble siRNA (hereinafter, also called ‘siCTR’) was added instead of the siRNAs.
In FIG. 5, siCTR represents control siRNA, and siPINT represents siPINT-3 among the five used siPINTs. […] However, there was little change in the number of young cells by inhibition of PINT lincRNA expression.

[2] = system: HDF(neonatal) senescent cells; experiment: DNA comet assay in siRNA-introduced cells; conditions: 25 nM siRNA, 72 hours; for tail moment: control senescent cells 2.86, young cells 0.52
Experimental: (§1) HDF(neonatal) young cells being passaged 9 times and having a doubling time of 1 day and HDF(neonatal) senescent cells being passaged 49 times and having a doubling time of 14 days, which were prepared in section 1, were cultured for 72 hours under the same conditions as in section 1, except that each 25 nM of siPINT-3 and siPINT-4 was mixed with 1 μL of a Dharmacon transfection reagent (Dharmacon) and added to media. A negative control group was prepared in the same manner, except that scramble siRNA (hereinafter, also called ‘siCTRL’) was added instead of the siRNAs.
Further, DNAs were isolated from the same cells, followed by DNA comet assay. This method is performed by detecting DNA strand break in cells, based on gel electrophoresis. […] After staining a slide with SYBR Green, a length of a tail of DNA fragment was measured under a fluorescence microscope to examine DNA damage.

[3] = system: HDF(neonatal) senescent cells; experiment: Immunoblotting of phosphorylated H2AX (gamma-H2AX) in siRNA-introduced cells; conditions: HDF(neonatal) senescent cells vs young cells, 25 nM siRNA, 72 hours
Experimental: as §1
After culturing, proteins were isolated from siRNA-introduced cells, and then the isolated proteins were subjected to immunoblotting using anti-GAPDH and anti-phosphorylated-H2AX. H2AX becomes phosphorylated on serine 139 as a reaction on DNA Double-strand breaks (DSB), and is also called gamma-H2AX. Gamma-H2AX is an indicator of DNA damage.

Compound | PINT levels decreased as compared to the control group (PINT) [%] | tail moment [2] | gamma-H2AX levels (indicator of DNA damage) [3] | further results
C[C@@]1(CO)[C@H](O)CC[C@@]2(C)[C@H]1CC[C@H]1C[C@@H]3C[C@@]12CC[C@]3(O)CO [aphidicolin] | – | – | – | relative PINT level (PINT lincRNA; HDF(M4) young cells): 1.95; relative PINT level (PINT lincRNA; HDF(neonatal) young cells): 2.72
siPINT-1: siRNA complementary to PINT gene, nucleotide sequences of SEQ ID NO: 12 and SEQ ID NO: 13 (chain 1 AAGAAAUACGCAGAACUGAUUCCUG; chain 2 CAGGAAUCAGUUCUGCGUAUUUCUU; listed as RNA, chemistry not given here) | 36 | – | – | –
siPINT-2: siRNA complementary to PINT gene, nucleotide sequences of SEQ ID NO: 14 and SEQ ID NO: 15 (chain 1 UGGGAUAAUUUGCCAUCUGGAGUUU; chain 2 AAACUCCAGAUGGCAAAUUAUCCCA; listed as RNA, chemistry not given here) | 0 | – | – | –
siPINT-3: siRNA complementary to PINT gene, nucleotide sequences of SEQ ID NO: 16 and SEQ ID NO: 17 (chain 1 AUGUAUCAAAUGCCUGGUUCUAUUU; chain 2 AAAUAGAACCAGGCAUUUGAUACAU; listed as RNA, chemistry not given here) | 67 | 3.68 | specifically increased | number of senescent cells compared to the negative control group ([1]; HDF(neonatal) senescent cells): remarkably decreased; change in the number of young cells ([1]; HDF(neonatal) young cells): little change; DNA damage (comet tails, photograph) compared to senescent cells without siPINT introduction [2]: remarkably increased DNA damage
siPINT-4: siRNA complementary to PINT gene, nucleotide sequences of SEQ ID NO: 18 and SEQ ID NO: 19 (chain 1 AAGUAGGAGCCACGAAAUGUCAUUU; chain 2 AAAUGACAUUUCGUGGCUCCUACUU; listed as RNA, chemistry not given here) | 50 | 5.58 | specifically increased | –
siPINT-5: siRNA complementary to PINT gene, nucleotide sequences of SEQ ID NO: 20 and SEQ ID NO: 21 (chain 1 AGCCAGGAAGAGGGACUGGAACCAU; chain 2 AUGGUUCCAGUCCCUCUUCCUGGCU; listed as RNA, chemistry not given here) | 0 | – | – | –
